The text below walks through data of patent US11834430B2, “Compounds useful as inhibitors of isoprenylcysteine carboxyl methyltransferase” (AGENCY FOR SCIENCE, TECHNOLOGY AND RESEARCH, priority 2017, dated 2023).

“And” between values parts separate entries of the source, which are not always exact repeats. Identical values can stand only once.

The target of one experiment is human ICMT (Homo sapiens (Human), UniProt O60725). As to the kind of experiment: ICMT biochemical assay (Methyltransferase-Glo). As to the method: Recombinant human ICMT was prepared by infection of Sf9 cells with a recombinant baculovirus containing the entire open reading frame of the human ICMT cDNA.
Chain of human ICMT (O60725 whole entry): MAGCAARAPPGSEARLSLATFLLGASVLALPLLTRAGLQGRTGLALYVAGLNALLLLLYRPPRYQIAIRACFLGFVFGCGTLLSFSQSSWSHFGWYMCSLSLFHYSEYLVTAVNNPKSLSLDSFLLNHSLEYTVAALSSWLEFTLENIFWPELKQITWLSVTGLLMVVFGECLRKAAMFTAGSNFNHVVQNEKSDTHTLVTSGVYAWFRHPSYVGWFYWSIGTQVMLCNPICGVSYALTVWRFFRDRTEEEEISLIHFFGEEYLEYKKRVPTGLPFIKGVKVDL
Cells producing ICMT were harvested 66 hours post-infection. The cells are homogenized and resuspended in 5 mM NaHPO4 (pH 7.0), and a cocktail of protease inhibitors. The membrane was pelleted, after removal of nuclei and debris, at 100,000×g for 1 hour. Membranes were resuspended in 5 mM NaHPO4 (pH 7.0) with 5 mM EDTA at 10-12 mg/ml. The suspension was stored at −80° C. in multiple aliquots.
An ICMT enzymatic assay was developed using Promega's Methyltransferase-GloTMreagents. In the assay, ICMT catalyzes the methylation of the N-Acetyl-S-farnesyl-L-cysteine by transferring a methyl group from SAM to the farnesylated cysteine and further converts the SAM to SAH. The methyltransferase activity is measured based on the amount of SAH produced from the reaction through the use of coupling enzymes that convert the SAH to ATP. The MTase-Glo detection solution then catalyzes the formation of light from ATP.
A final concentration of 2.0 μM and 20 μM of SAM and peptide were added and further incubated for 90 minutes at room temperature before adding the MTase Glo and detection reagent. Reaction signals were detected using microplate readers on luminescent mode (Satire Tecan). The IC50 was determined by nonlinear regression, using GraphPad Prism version, 5.03.

Another experiment deals with MIAPaCa-2 cells. The experiment in a line: Cell proliferation assay (CellTiter-Glo). As to conditions: Homo sapiens, MIA PaCa-2, 72 h, 3 days. The experiment is classed as cell-based. As to the method: Cell proliferation assay was performed using CellTiter-Glo Luminescent Cell Viability Assay (Promega) following manufacturer's instructions. The MIAPaCa-2 cells (ATCC) were treated with compounds that were serial diluted in the media (DMEM). Plates were incubated for 3 days at 37° C. in 5% CO2. After 3 days, an equal volume of Cell Titer Glo reagent was added. Plates were rocked on a rotator for 2 hours. 100 μL of each well was transferred to a 96-well opaque plate, and luminescence emitted was measured with the Tecan Safire II.
Background: In ATP-based viability assays light output follows the ATP content of the culture.

The test system of experiment [1] is Prelamin A in MIAPaCa-2 cells. The experiment in a line: Prelamin A accumulation assay (Western blot). The format is cell-based. The note with it: various concentrations, 48 hours. How it is done: The MIAPaCa-2 cells were seeded in 6-well plates. After seeding for 24 hours, the cells were treated with either DMSO or varying concentration of the compound and incubated for 48 hours. The cells were trypsinized and the lysate was extracted with RIPA buffer (Santa Cruz). The total protein concentration of lysate is quantified using the standard Bradford assay (Biorad protein assay, microplate standard assay).
Western blot analysis was performed using antibody against Prelamin A in MIAPaCa cells treated with compound at various concentration for 48 hours. 15.0 μg of cell lysate was run on a SDS-PAGE and then transferred to nitrocellulose membrane. The membrane was then incubated in blocking buffer [PBS (phosphate buffered saline) with 0.1% Tween 20 and 5% dry milk] at room temperature for 1 hour, followed by incubation with Prelamin A antibody (rat monoclonal antibody) at 1:2500 dilution in PBS, 0.1% Tween 20 and 5% dry milk overnight at 4° C., followed by three washes (15 minutes each wash) in PBS, 0.1% Tween 20 on the next day.
The nitrocellulose membrane was then incubated with secondary antibody solution at room temperature for 1 hour, washed three times before developed with enhanced Chemiluminescence (ECL) mixture (Amersham, Aylesbury, United Kingdom), incubated for 5 minutes and exposed using Fluor Chem E System instrument (Protein Simple).
In general terms: Immunoblotting shows a protein as a band on a membrane.

The mark [2] stands for this setting: ICMT membrane extract from Sf-9 cells, 30 min preincubation, 90 min reaction.

Take `Cc1nccn1-c1cc(OCCOc2ccc(C#N)cc2F)ccn1` [Compound 53, 3-fluoro-4-(2-((2-(2-methyl-1H-imidazol-1-yl)pyridin-4-yl)oxy)ethoxy)benzonitrile]: the midpoint of inhibition against human ICMT (setting [2]), the IC50, lay at 440 pM. Also, the GI50 (commonly the concentration at which growth is held to half of that of the control) in the experiment with MIAPaCa-2 cells worked out at 2200 nM.
Take `Cn1nccc1-c1cc(OCCOc2ccc(C#N)cc2)ccn1` [Compound 59, 4-(2-((2-(1-methyl-1H-pyrazol-5-yl)pyridin-4-yl)oxy)ethoxy)benzonitrile]: the IC50 (in general, the concentration that gives 50% inhibition) against human ICMT (setting [2]) came out at 20000 pM. For the same compound, the concentration for 50% growth inhibition (GI50) with MIAPaCa-2 cells came out at 5520 nM. Further, the “Prelamin A accumulation (Western blot)” value in experiment [1] is “Prelamin A accumulation”.
Consider `Cn1nccc1-c1cc(OCCOc2ccc(C#N)cn2)ccn1` [Compound 71, 6-(2-((2-(1-methyl-1H-pyrazol-5-yl)pyridin-4-yl)oxy)ethoxy)nicotinonitrile], for which, on human ICMT (setting [2]), the IC50 is 44000 pM and 41000 pM. This compound showed a GI50 in the experiment with MIAPaCa-2 cells of 12700 nM. For the same compound, in experiment [1], the “Prelamin A accumulation (Western blot)” value is given as “Prelamin A accumulation”.
`Cc1nccn1-c1cccc(OC[C@@H](C)Oc2ccc(C#N)cc2F)c1` [Compound 78, (R)-3-fluoro-4-((1-(3-(2-methyl-1H-imidazol-1-yl)phenoxy)propan-2-yl)oxy)benzonitrile] showed an IC50 on human ICMT (unit printed in cell (pM)) of 75 pM. Further, the GI50 with MIAPaCa-2 cells stood at 6020 nM.
`Cc1nccn1-c1cccc(O[C@@H](C)COc2ccc(C#N)cc2Cl)c1` [Compound 33, (S)-3-chloro-4-(2-(3-(2-methyl-1H-imidazol-1-yl)phenoxy)propoxy)benzonitrile] came in with an IC50 at human ICMT (setting [2]) of 1500 pM.
`Cc1nccn1-c1cccc(O[C@H](C)COc2ccc(C#N)cc2Cl)c1` [Compound 32, (R)-3-chloro-4-(2-(3-(2-methyl-1H-imidazol-1-yl)phenoxy)propoxy)benzonitrile] yielded an IC50 at human ICMT (setting [2]) of 200000 pM.
With `Cc1cc(C#N)ccc1O[C@@H](C)COc1cccc(-n2ccnc2C2CC2)c1` [Compound 49, (S)-4-((1-(3-(2-cyclopropyl-1H-imidazol-1-yl)phenoxy)propan-2-yl)oxy)-3-methylbenzonitrile], half-maximal inhibition against human ICMT (setting [2]) (IC50) was put at 300 pM.
Regarding `Cc1nccn1-c1cccc(OC[C@H](C)Oc2ccc(C#N)cc2F)c1` [Compound 79, (S)-3-fluoro-4-((1-(3-(2-methyl-1H-imidazol-1-yl)phenoxy)propan-2-yl)oxy)benzonitrile], the IC50 at human ICMT (setting [2]) was determined as 31000 pM.
`Cn1nccc1-c1cccc(OCCOc2ccc(C#N)cc2Cl)c1` [Compound 7, 3-chloro-4-(2-(3-(1-methyl-1H-pyrazol-5-yl)phenoxy)ethoxy)benzonitrile] had a half-inhibitory concentration (IC50) at human ICMT (setting [2]) of 3000 pM.
As for `N#Cc1ccc(OCCOc2cccc(-n3ccnc3C3CC3)c2)cc1` [Compound 20, 4-(2-(3-(2-cyclopropyl-1H-imidazol-1-yl)phenoxy)ethoxy)benzonitrile], the IC50 at human ICMT (setting [2]) was 170 pM and 160 pM.
`C#Cc1ccc(OCCOc2cccc(-n3ccnc3C)c2)c(F)c1` [Compound 51, 1-(3-(2-(4-ethynyl-2-fluorophenoxy)ethoxy)phenyl)-2-methyl-1H-imidazole] came in with an IC50 at human ICMT (setting [2]) of 20000 pM.
Still for that read-out and setting: next, `Cn1nccc1-c1cc(OCCOc2ccc(Cl)cc2F)ccn1` [Compound 101, 4-(2-(4-chloro-2-fluorophenoxy)ethoxy)-2-(1-methyl-1H-pyrazol-5-yl)pyridine]: 29000 pM; `Cc1nccn1-c1cc(OCCOc2ccc(C#N)cc2Cl)ccn1` [Compound 24, 3-chloro-4-(2-((2-(2-methyl-1H-imidazol-1-yl)pyridin-4-yl)oxy)ethoxy)benzonitrile]: 1000 pM.
For `Cn1nccc1-c1cc(OCCOc2ccc(C#N)cc2F)ccn1` [Compound 69, 3-fluoro-4-(2-((2-(1-methyl-1H-pyrazol-5-yl)pyridin-4-yl)oxy)ethoxy)benzonitrile], the IC50 against human ICMT (setting [2]) was 2800 pM and 1400 pM and 1500 pM. In the experiment on MIAPaCa-2 cells, this compound registered a GI50 of 5050 nM. In addition, the “Prelamin A accumulation (Western blot)” value in experiment [1] is recorded as “Prelamin A accumulation”.
Compound `Cc1nccn1-c1cc(OCCOc2ccc(Cl)cc2C#N)ccn1` [Compound 99, 5-chloro-2-(2-((2-(2-methyl-1H-imidazol-1-yl)pyridin-4-yl)oxy)ethoxy)benzonitrile] displayed an IC50 against human ICMT (setting [2]) of 2600 pM.
The compound `COc1cc(C#N)ccc1O[C@@H](C)COc1cccc(-c2ccnn2C)c1` [Compound 60, (S)-3-methoxy-4-((1-(3-(1-methyl-1H-pyrazol-5-yl)phenoxy)propan-2-yl)oxy)benzonitrile] had an IC50 at human ICMT (unit (nM)) of 810 pM.
`Cc1nccn1-c1cccc(OCCOc2ccc(C#N)cc2F)n1` [Compound 86, 3-fluoro-4-(2-((6-(2-methyl-1H-imidazol-1-yl)pyridin-2-yl)oxy)ethoxy)benzonitrile]: the IC50 at human ICMT (setting [2]) worked out at 17000 pM.
As to `N#Cc1ccc(OCCOc2cccc(-n3ccnc3C3CC3)c2)c(Cl)c1` [Compound 9, 3-chloro-4-(2-(3-(2-cyclopropyl-1H-imidazol-1-yl)phenoxy)ethoxy)benzonitrile], the IC50 against human ICMT (setting [2]) was 100 pM and 180 pM.
With `Cc1nccn1-c1cc(OCCOc2ccc(Cl)cc2F)ccn1` [Compound 103, 4-(2-(4-chloro-2-fluorophenoxy)ethoxy)-2-(2-methyl-1H-imidazol-1-yl)pyridine], inhibition at human ICMT (setting [2]) was half-maximal at 3100 pM (IC50).
For `Cc1nccn1-c1cccc(OC[C@@H](C)Oc2ccc(C#N)cc2Cl)c1` [Compound 55, (R)-3-chloro-4-((1-(3-(2-methyl-1H-imidazol-1-yl)phenoxy)propan-2-yl)oxy)benzonitrile], half-maximal inhibition at human ICMT (setting [2]) (IC50) was put at 11000 pM.
On human ICMT (setting [2]), `Cc1nccn1-c1cccc(OC(C)COc2ccc(C#N)cc2Cl)c1` (stereo not drawn) [Compound 22, 3-chloro-4-(2-(3-(2-methyl-1H-imidazol-1-yl)phenoxy)propoxy)benzonitrile] returned an IC50 of 3000 pM.
On to `Cc1nccn1-c1cc(OCCOc2ccc(F)cc2C#N)ccn1` [Compound 119, 5-fluoro-2-(2-((2-(2-methyl-1H-imidazol-1-yl)pyridin-4-yl)oxy)ethoxy)benzonitrile], for which the IC50 against human ICMT (setting [2]) worked out at 80000 pM.
The same measure, in the same setting: to `Cc1nncn1-c1cc(OCCOc2ccc(C#N)cc2F)ccn1` [Compound 95, 3-fluoro-4-(2-((2-(3-methyl-4H-1,2,4-triazol-4-yl)pyridin-4-yl)oxy)ethoxy)benzonitrile] belongs 10000 pM; to `Cc1nccn1-c1cccc(OCCOc2ccc(C#N)nn2)c1` [Compound 73, 6-(2-(3-(2-methyl-1H-imidazol-1-yl)phenoxy)ethoxy)pyridazine-3-carbonitrile], 950000 pM.
Take `N#Cc1ccc(OCCOc2cccc(-c3cnoc3)c2)cc1` [Compound 67, 4-(2-(3-(isoxazol-4-yl)phenoxy)ethoxy)benzonitrile]: the IC50 on human ICMT (setting [2]) is 140000 pM and 100000 pM.
Consider `C[C@@H](COc1cccc(-c2ccno2)c1)Oc1ccc(C#N)cc1F` [Compound 66, (S)-3-fluoro-4-((1-(3-(isoxazol-5-yl)phenoxy)propan-2-yl)oxy)benzonitrile], for which the IC50 against human ICMT (setting [2]) was 180000 pM and 190000 pM.
At human ICMT (setting [2]), `Cn1nccc1-c1ccc(F)c(OCCOc2ccc(C#N)cc2)c1` [Compound 96, 4-(2-(2-fluoro-5-(1-methyl-1H-pyrazol-5-yl)phenoxy)ethoxy)benzonitrile] registered an IC50 of 400000 to 3e+06 pM.
`Cn1nccc1-c1cccc(OCCOc2ccc(Cl)cc2)c1` [Compound 110, 5-(3-(2-(4-chlorophenoxy)ethoxy)phenyl)-1-methyl-1H-pyrazole] had an IC50 against human ICMT (setting [2]) of 270000 pM.
In the case of `COc1cc(C#N)ccc1OCCOc1cccc(-c2cncs2)c1` [Compound 16, 3-methoxy-4-(2-(3-(thiazol-5-yl)phenoxy)ethoxy)benzonitrile], the IC50 on human ICMT (setting [2]) is 8000 pM and 11000 pM.
With `Cc1nccn1-c1cc(OCCOc2ccc(Br)cc2F)ccn1` [Compound 104, 4-(2-(4-bromo-2-fluorophenoxy)ethoxy)-2-(2-methyl-1H-imidazol-1-yl)pyridine], inhibition against human ICMT (setting [2]) was half-maximal at 1700 pM (IC50).
Compound `N#Cc1ccc(OCCOc2cccc(-c3ccnn3C3CC3)c2)c(F)c1` [Compound 116, 4-(2-(3-(1-cyclopropyl-1H-pyrazol-5-yl)phenoxy)ethoxy)-3-fluorobenzonitrile] gave an IC50 at human ICMT (setting [2]) of 9500 pM.
